Values joined by “and” are separate entries in the source; they are usually repeats but may differ in a detail not shown here. Equal values may be shown once. Inconclusive results and toxic doses are left out. No stated cut-off is given here; in the data, active means T/C of 150% or more; inactive means T/C below 125%.
Tested on: L1210 leukemia ip in BDF1 mice, survival T/C
Assay: NCI In Vivo Anticancer Drug Screen. Data for tumor model L1210 Leukemia (intraperitoneal) in B6D2F1 (BDF1) mice
Conditions: endpoint: mean survival time, higher = longer survival
Summary of the method: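 Each compound was tested against a transplantable tumor grown in mice. The endpoint was survival, with treated animals benchmarked against vehicle controls as a simple ratio.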

[1] = dose: 100.0 mg/kg/injection, schedule: Q04DX003 (ip), vehicle: saline with Tween-80
[2] = dose: 200.0 mg/kg/injection, schedule: Q04DX003 (ip), vehicle: saline with Tween-80
[3] = dose: 400.0 mg/kg/injection, schedule: Q04DX003 (ip), vehicle: saline with Tween-80
[4] = dose: 100.0 mg/kg/injection, schedule: Q04DX003 (ip), vehicle: other
[5] = dose: 200.0 mg/kg/injection, schedule: Q04DX003 (ip), vehicle: other
[6] = dose: 400.0 mg/kg/injection, schedule: Q04DX003 (ip), vehicle: other
[7] = dose: 100.0 mg/kg/injection, schedule: Q01DX009 (ip), vehicle: alcohol
[8] = dose: 200.0 mg/kg/injection, schedule: Q01DX009 (ip), vehicle: alcohol
[9] = dose: 400.0 mg/kg/injection, schedule: Q01DX009 (ip), vehicle: alcohol
[10] = dose: 75.0 mg/kg/injection, schedule: Q01DX001 (ip), vehicle: saline
[11] = dose: 150.0 mg/kg/injection, schedule: Q01DX001 (ip), vehicle: saline
[12] = dose: 50.0 mg/kg/injection, schedule: Q01DX009 (ip), vehicle: saline with Tween-80
[13] = dose: 100.0 mg/kg/injection, schedule: Q01DX009 (ip), vehicle: saline with Tween-80
[14] = dose: 200.0 mg/kg/injection, schedule: Q01DX009 (ip), vehicle: saline with Tween-80
[15] = dose: 50.0 mg/kg/injection, schedule: Q01DX001 (ip), vehicle: saline
[16] = dose: 100.0 mg/kg/injection, schedule: Q01DX001 (ip), vehicle: saline
[17] = dose: 200.0 mg/kg/injection, schedule: Q01DX001 (ip), vehicle: saline
[18] = dose: 400.0 mg/kg/injection, schedule: Q01DX001 (ip), vehicle: saline
[19] = dose: 100.0 mg/kg/injection, schedule: Q01DX001 (ip), vehicle: Klucel (hydroxypropylcellulose) (HPC)
[20] = dose: 200.0 mg/kg/injection, schedule: Q01DX001 (ip), vehicle: Klucel (hydroxypropylcellulose) (HPC)
[21] = dose: 400.0 mg/kg/injection, schedule: Q01DX001 (ip), vehicle: Klucel (hydroxypropylcellulose) (HPC)

Measured: T/C

CCOc1ccc(/C=N/Nc2ccc([N+](=O)[O-])cc2)cc1OC
inactive: dose: 25.0 mg/kg/injection, schedule: Q01DX009 (ip), vehicle: saline sonified 93 % of control | dose: 37.5 mg/kg/injection, schedule: Q01DX009 (ip), vehicle: saline with Tween-80 91 % of control | dose: 50.0 mg/kg/injection, schedule: Q01DX009 (ip), vehicle: saline sonified 103 % of control | dose: 75.0 mg/kg/injection, schedule: Q01DX009 (ip), vehicle: saline with Tween-80 93 % of control | dose: 100.0 mg/kg/injection, schedule: Q01DX009 (ip), vehicle: saline sonified 98 % of control | [1] 90 % of control | dose: 150.0 mg/kg/injection, schedule: Q01DX009 (ip), vehicle: saline with Tween-80 96 % of control | [2] 97 % of control | dose: 400.0 mg/kg/injection, schedule: Q04DX003 (ip), vehicle: saline sonified 88 % of control | [3] 87 % of control

COc1cc2c(cc1OC(C)=O)C=CCCC2=O
inactive: dose: 100.0 mg/kg/injection, schedule: Q01DX009 (ip), vehicle: other 97 % of control | [4] 105 % of control | dose: 200.0 mg/kg/injection, schedule: Q01DX009 (ip), vehicle: other 90 % of control | [5] 105 % of control | dose: 400.0 mg/kg/injection, schedule: Q01DX009 (ip), vehicle: other 97 % of control | [6] 104 % of control

N#CC(C#N)=Cc1ccccc1[N+](=O)[O-]
inactive: dose: 25.0 mg/kg/injection, schedule: Q01DX Z (ip), vehicle: methylcellulose (MC) 98 % of control | dose: 50.0 mg/kg/injection, schedule: Q01DX Z (ip), vehicle: methylcellulose (MC) 88 % of control

CCCCN1CCSC1=S
inactive: [7] 93 % of control | dose: 100.0 mg/kg/injection, schedule: Q04DX002 (ip), vehicle: alcohol 100 % of control | [8] 96 % of control | dose: 200.0 mg/kg/injection, schedule: Q04DX002 (ip), vehicle: alcohol 87 % of control | [9] 86 % of control | dose: 400.0 mg/kg/injection, schedule: Q04DX002 (ip), vehicle: alcohol 103 % of control

Cc1ccc(SCCCN)cc1
inactive: [10] 100 % of control | [11] 94 % of control

O=c1ccs[nH]1
inactive: dose: 12.5 mg/kg/injection, schedule: Q04DX003 (ip), vehicle: saline with Tween-80 106 % of control | dose: 25.0 mg/kg/injection, schedule: Q04DX003 (ip), vehicle: saline with Tween-80 98 % of control

CCCCCCOc1ccc(C=Nc2ccc(C)cc2)cc1
inactive: dose: 100.0 mg/kg/injection, schedule: Q04DX003 (ip), vehicle: Klucel (hydroxypropylcellulose) (HPC) 97 % of control | dose: 200.0 mg/kg/injection, schedule: Q04DX003 (ip), vehicle: Klucel (hydroxypropylcellulose) (HPC) 103 % of control | dose: 400.0 mg/kg/injection, schedule: Q04DX003 (ip), vehicle: Klucel (hydroxypropylcellulose) (HPC) 101 % of control

O=C(c1ccccc1)C1CCC(C(=O)c2ccccc2)C1=O (stereo not drawn)
inactive: dose: 100.0 mg/kg/injection, schedule: Q01DX001 (ip), vehicle: carboxymethylcellulose (CMC) 98 % of control | dose: 200.0 mg/kg/injection, schedule: Q01DX001 (ip), vehicle: carboxymethylcellulose (CMC) 98 % of control | dose: 400.0 mg/kg/injection, schedule: Q01DX001 (ip), vehicle: carboxymethylcellulose (CMC) 98 % of control

O=C1NC(=O)C2(N1)C1CC3CC(C1)CC2C3 (stereo not drawn)
inactive: [7] 94 % of control | dose: 100.0 mg/kg/injection, schedule: Q04DX003 (ip), vehicle: alcohol 96 % of control | [8] 98 % of control | dose: 200.0 mg/kg/injection, schedule: Q04DX003 (ip), vehicle: alcohol 102 % of control | [9] 87 % of control | dose: 400.0 mg/kg/injection, schedule: Q04DX003 (ip), vehicle: alcohol 96 % of control

CC1(C)C(=O)Nc2ccccc2N1C(=O)CN1CCCC1
inactive: dose: 9.37 mg/kg/injection, schedule: Q01DX009 (ip), vehicle: acetone 97 % of control | dose: 18.75 mg/kg/injection, schedule: Q01DX009 (ip), vehicle: acetone 88 % of control | dose: 37.5 mg/kg/injection, schedule: Q01DX009 (ip), vehicle: acetone 98 % of control | dose: 37.5 mg/kg/injection, schedule: Q04DX003 (ip), vehicle: saline 100 % of control | [10] 102 % of control | dose: 75.0 mg/kg/injection, schedule: Q04DX003 (ip), vehicle: saline 91 % of control | [11] 109 % of control

CCCCCCCCOP(=O)(N1CC1C)N1CC1C (stereo not drawn)
inactive: dose: 33.0 mg/kg/injection, schedule: Q01DX003 (ip), vehicle: acetone 102 % of control | dose: 33.0 mg/kg/injection, schedule: Q01DX009 (ip), vehicle: saline with Tween-80 114 % of control | dose: 33.0 mg/kg/injection, schedule: Q01DX009 (ip), vehicle: saline 116 % of control | dose: 50.0 mg/kg/injection, schedule: Q01DX003 (ip), vehicle: acetone 96 % of control | [12] 122 % of control | dose: 75.0 mg/kg/injection, schedule: Q01DX003 (ip), vehicle: acetone 113 % of control | dose: 100.0 mg/kg/injection, schedule: Q01DX001 (ip), vehicle: acetone 103 % of control | dose: 200.0 mg/kg/injection, schedule: Q01DX001 (ip), vehicle: acetone 114 % of control

CC(C)=CCC/C(C)=C/CN1C(=O)CC(C)=C(C)C1=O
inactive: [13] 97 % of control | [1] 95 % of control | [14] 95 % of control | [2] 104 % of control | dose: 400.0 mg/kg/injection, schedule: Q01DX009 (ip), vehicle: saline with Tween-80 95 % of control | [3] 95 % of control

CC1=CC(=O)C(c2ccccc2)CC1 (stereo not drawn) (tested in a mixture with another compound)
inactive: [12] 96 % of control | [13] 96 % of control | [14] 96 % of control

CCOC(=O)c1cccc(N(CCO)CCO)c1
inactive: [15] 103 % of control | [16] 97 % of control | [17] 103 % of control | [18] 103 % of control

CCSC(=O)N=Nc1ccc(O)cc1
inactive: [15] 103 % of control | [16] 100 % of control | [17] 94 % of control | [18] 111 % of control

N=C(N)SCC(=O)c1ccc([N+](=O)[O-])cc1
inactive: dose: 100.0 mg/kg/injection, schedule: Q04DX002 (ip), vehicle: saline with Tween-80 88 % of control | dose: 200.0 mg/kg/injection, schedule: Q04DX002 (ip), vehicle: saline with Tween-80 95 % of control

CC(=O)OC1C(COS(=O)(=O)c2ccc(C)cc2)OCOC(COS(=O)(=O)c2ccc(C)cc2)C1OC(C)=O (stereo not drawn)
inactive: [19] 100 % of control | [20] 93 % of control | [21] 90 % of control

C=C(COc1ccc(Cl)cc1)COc1ccc(Cl)cc1
inactive: dose: 12.5 mg/kg/injection, schedule: Q04DX002 (ip), vehicle: other 115 % of control and 117 % of control | dose: 50.0 mg/kg/injection, schedule: Q04DX003 (ip), vehicle: other 98 % of control and 107 % of control | dose: 100.0 mg/kg/injection, schedule: Q01DX001 (ip), vehicle: other 95 % of control and 99 % of control | [4] 96 % of control and 113 % of control | dose: 200.0 mg/kg/injection, schedule: Q01DX001 (ip), vehicle: other 96 % of control and 98 % of control | [5] 93 % of control and 106 % of control | dose: 400.0 mg/kg/injection, schedule: Q01DX001 (ip), vehicle: other 91 % of control | [6] 95 % of control and 113 % of control

O=C(O)C1CCCN1C(=O)Cc1ccc2c(c1)OCO2 (stereo not drawn)
inactive: dose: 75.0 mg/kg/injection, schedule: Q01DX009 (ip), vehicle: Klucel (hydroxypropylcellulose) (HPC) 96 % of control | [19] 98 % of control | dose: 150.0 mg/kg/injection, schedule: Q01DX009 (ip), vehicle: Klucel (hydroxypropylcellulose) (HPC) 93 % of control | [20] 95 % of control | dose: 300.0 mg/kg/injection, schedule: Q01DX009 (ip), vehicle: Klucel (hydroxypropylcellulose) (HPC) 98 % of control | [21] 92 % of control

CC(O)CNC1CCCCC1 (stereo not drawn)
inactive: [10] 92 % of control | [11] 100 % of control

Source: PubChem BioAssay AID248 (DTP/NCI, 2004)
